Reference: ChEMBL document CHEMBL1143819, “In vitro activities of miltefosine and two novel antifungal biscationic salts against a panel of 77 dermatophytes” (2007)
In brackets after ≈: the same amount, converted by molar mass.

How the values were obtained:
Type in all cases: functional
Settings in all cases: 168 h
Trichophyton soudanense = assay: Antifungal activity against Trichophyton soudanense after 7 days by broth microdilution test
Microsporum = assay: Antifungal activity against Microsporum sp. after 7 days by broth microdilution test
Trichophyton tonsurans = assay: Antifungal activity against Trichophyton tonsurans after 7 days by broth microdilution test
Epidermophyton floccosum = assay: Antifungal activity against Epidermophyton floccosum after 7 days by broth microdilution test
Trichophyton rubrum = assay: Antifungal activity against Trichophyton rubrum after 7 days by broth microdilution test
Microsporum canis = assay: Antifungal activity against Microsporum canis after 7 days by broth microdilution test
Nannizzia gypsea = assay: Antifungal activity against Microsporum gypseum after 7 days by broth microdilution test
Trichophyton violaceum = assay: Antifungal activity against Trichophyton violaceum after 7 days by broth microdilution test
Paraphyton cookei = assay: Antifungal activity against Microsporum cookei after 7 days by broth microdilution test
[1] = test system: Trichophyton mentagrophytes; assay: Antifungal activity against Trichophyton mentagrophytes after 7 days by broth microdilution test
Trichophyton = assay: Antifungal activity against Trichophyton sp. after 7 days by broth microdilution test
Candida = assay: Antifungal activity against Candida after 7 days by broth microdilution test
[2] = Antifungal activity against Cryptococcus after 7 days by broth microdilution test

SMILES	MIC (Trichophyton soudanense)	MIC (Microsporum)	MIC50 (Microsporum)	MIC90 (Microsporum)	MIC (Trichophyton tonsurans)	MIC50 (Trichophyton tonsurans)	MIC (Epidermophyton floccosum)	MIC (Trichophyton rubrum)	MIC50 (Trichophyton rubrum)	MIC90 (Trichophyton rubrum)	MIC (Microsporum canis)	MIC (Nannizzia gypsea)	MIC (Trichophyton violaceum)	MIC (Paraphyton cookei)	MIC [1]	MIC50 [1]	MIC90 [1]	MIC (Trichophyton)	MIC50 (Trichophyton)	MIC90 (Trichophyton)	further results
CN(Cc1ccc(C(C)(C)C)cc1)Cc1cccc2ccccc12 [BUTENAFINE]	0.059 µg/mL (≈ 0.186 µM)	0.106 µg/mL (≈ 0.334 µM)	0.125 µg/mL (≈ 0.394 µM)	0.125 µg/mL (≈ 0.394 µM)	0.04 µg/mL (≈ 0.126 µM)	0.031 µg/mL (≈ 0.0976 µM)	0.081 µg/mL (≈ 0.255 µM)	0.05 µg/mL (≈ 0.157 µM)	0.063 µg/mL (≈ 0.198 µM)	0.125 µg/mL (≈ 0.394 µM)	0.101 µg/mL (≈ 0.318 µM)	0.084 µg/mL (≈ 0.265 µM)	0.063 µg/mL (≈ 0.198 µM)	0.153 µg/mL (≈ 0.482 µM)	0.063 µg/mL (≈ 0.198 µM)	0.063 µg/mL (≈ 0.198 µM)	0.125 µg/mL (≈ 0.394 µM)	0.074 µg/mL (≈ 0.233 µM)	0.063 µg/mL (≈ 0.198 µM)	0.125 µg/mL (≈ 0.394 µM)	MIC90 (Trichophyton tonsurans): 0.063 µg/mL (≈ 0.198 µM)
CCCCCc1cc[n+](CCCCCCCCCCCC[n+]2ccc(CCCCC)cc2)cc1.[Cl-].[Cl-]	14.5 µg/mL	2.24 µg/mL	2 µg/mL	4 µg/mL	2.8 µg/mL	2 µg/mL	7.63 µg/mL	10.4 µg/mL	8 µg/mL	16 µg/mL	2.95 µg/mL	2.41 µg/mL	8.96 µg/mL	1.06 µg/mL	9.01 µg/mL	8 µg/mL	16 µg/mL	6.98 µg/mL	8 µg/mL	16 µg/mL	MIC90 (Trichophyton tonsurans): 8 µg/mL; MIC (Candida): 0.6 µg/mL; MIC [2]: 0.6 µg/mL
CN(C/C=C/C#CC(C)(C)C)Cc1cccc2ccccc12 [TERBINAFINE]	0.039 µg/mL (≈ 0.134 µM)	0.075 µg/mL (≈ 0.257 µM)	0.063 µg/mL (≈ 0.216 µM)	0.125 µg/mL (≈ 0.429 µM)	0.03 µg/mL (≈ 0.103 µM)	–	0.059 µg/mL (≈ 0.202 µM)	0.035 µg/mL (≈ 0.12 µM)	0.031 µg/mL (≈ 0.106 µM)	0.063 µg/mL (≈ 0.216 µM)	0.083 µg/mL (≈ 0.285 µM)	0.065 µg/mL (≈ 0.223 µM)	0.063 µg/mL (≈ 0.216 µM)	0.077 µg/mL (≈ 0.264 µM)	0.03 µg/mL (≈ 0.103 µM)	0.031 µg/mL (≈ 0.106 µM)	0.063 µg/mL (≈ 0.216 µM)	0.044 µg/mL (≈ 0.151 µM)	0.031 µg/mL (≈ 0.106 µM)	0.063 µg/mL (≈ 0.216 µM)	–
CCCCCCCCCCCCCCCCOP(=O)([O-])OCC[N+](C)(C)C [MILTEFOSINE]	0.52 µg/mL (≈ 1.28 µM)	0.75 µg/mL (≈ 1.84 µM)	1 µg/mL (≈ 2.45 µM)	1 µg/mL (≈ 2.45 µM)	0.398 µg/mL (≈ 0.977 µM)	0.25 µg/mL (≈ 0.613 µM)	0.548 µg/mL (≈ 1.34 µM)	0.547 µg/mL (≈ 1.34 µM)	0.5 µg/mL (≈ 1.23 µM)	1 µg/mL (≈ 2.45 µM)	0.555 µg/mL (≈ 1.36 µM)	0.842 µg/mL (≈ 2.07 µM)	0.328 µg/mL (≈ 0.805 µM)	0.866 µg/mL (≈ 2.12 µM)	1.13 µg/mL (≈ 2.78 µM)	1 µg/mL (≈ 2.45 µM)	2 µg/mL (≈ 4.91 µM)	0.652 µg/mL (≈ 1.6 µM)	0.5 µg/mL (≈ 1.23 µM)	1 µg/mL (≈ 2.45 µM)	MIC90 (Trichophyton tonsurans): 1 µg/mL (≈ 2.45 µM)
CCC(C)n1ncn(-c2ccc(N3CCN(c4ccc(OCC5COC(Cn6cncn6)(c6ccc(Cl)cc6Cl)O5)cc4)CC3)cc2)c1=O (stereo not given) [ITRACONAZOLE]	3.42 µg/mL (≈ 4.85 µM)	2.63 µg/mL (≈ 3.73 µM)	4 µg/mL (≈ 5.67 µM)	8 µg/mL (≈ 11.3 µM)	1.65 µg/mL (≈ 2.33 µM)	2 µg/mL (≈ 2.83 µM)	0.226 µg/mL (≈ 0.32 µM)	1.96 µg/mL (≈ 2.77 µM)	2 µg/mL (≈ 2.83 µM)	4 µg/mL (≈ 5.67 µM)	1.23 µg/mL (≈ 1.74 µM)	3.68 µg/mL (≈ 5.22 µM)	3.3 µg/mL (≈ 4.68 µM)	6 µg/mL (≈ 8.5 µM)	1.68 µg/mL (≈ 2.38 µM)	2 µg/mL (≈ 2.83 µM)	4 µg/mL (≈ 5.67 µM)	1.99 µg/mL (≈ 2.82 µM)	2 µg/mL (≈ 2.83 µM)	4 µg/mL (≈ 5.67 µM)	MIC90 (Trichophyton tonsurans): 4 µg/mL (≈ 5.67 µM)
